Laboratory results: patent publication US20120015925A1, “NOVEL BENZOTHIAZEPINE AND BENZOTHIEPINE COMPOUNDS” (ASAHI KASEI PHARMA CORPORATION, priority 2004, published 2012)
Blank lines part the entries; values can stand above or below the compound they belong to.

What was measured:
[1] = system: rats dosed cholic acid; assay: Lowering effect on bile acid concentrations in portal vein blood in rats dosed cholic acid; format: in vivo, rat
Summary of the method: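 Fasted male SD (IGS) rats aged 7–9 weeks received oral cholic acid (200 mg/kg) plus test compound in water with 0.05% or 1% surfactant (n=6). Portal vein serum total bile acid measured 2 h post-dose; reduction rate (%) calculated against cholic acid-only controls set as 100%.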

[2] = system: KKA^y/Ta Jcl male mice; assay: Obesity and fatty liver model: body weight and liver triglyceride; format: in vivo, mouse; conditions: for BODY WEIGHT (g) BEFORE ADMINISTRATION: 1 mg/kg group, baseline; for BODY WEIGHT (g) DIFFERENCE / BODY WEIGHT (g) TWO WEEKS / LIVER TRIGLYCERIDE: 1 mg/kg once a day for 2 weeks
Protocol: In the present Test Example, an obesity and fatty liver model was employed with reference to the method described in WO02/09757.
That is, KKA^y/Ta Jcl male mice at 10 weeks of age were used as obese mice (N=4 to 7). The test compound was dissolved or suspended in the aqueous solution of 1% HCO 60 (supplied from Nippon Chemicals). The aqueous solution of 1% HCO 60 (supplied from Nippon Chemicals) was used as the control. The consecutive administration was performed once a day for 2 weeks, and body weight was measured daily and compared with the body weight on the day before the administration. On the day after the final administration, the liver was removed, and a triglyceride concentration in liver tissue was measured using a measurement kit (Triglyceride Test Wako, supplied from Wako Pure Chemical Industries). The results are shown in the following Table 14 (Tables 14-1 to 14-3).

[3] = biological target: T1, human IBAT (Homo sapiens, UniProt Q12908); assay: In vitro assay using Cos 7 cells, transiently expressed human IBAT; format: cell-based; conditions: [3H]-taurocholate 8 μM uptake, 37° C., 60 minutes
T1 sequence (Q12908 1-348): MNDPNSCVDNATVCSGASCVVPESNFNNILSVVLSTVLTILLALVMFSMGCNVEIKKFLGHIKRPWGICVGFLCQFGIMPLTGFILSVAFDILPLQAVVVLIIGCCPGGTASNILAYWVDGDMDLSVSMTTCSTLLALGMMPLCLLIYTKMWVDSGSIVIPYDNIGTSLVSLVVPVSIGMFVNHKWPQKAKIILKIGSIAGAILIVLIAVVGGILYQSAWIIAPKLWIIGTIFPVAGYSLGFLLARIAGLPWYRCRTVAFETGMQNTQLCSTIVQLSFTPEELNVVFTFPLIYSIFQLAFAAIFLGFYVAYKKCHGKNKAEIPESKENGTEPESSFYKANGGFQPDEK
Summary of the method: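 Cos 7 cells transfected with human or rat IBAT cDNA were assayed one day later in Hanks buffer with 25 mM glucose and 10 mM HEPES (pH 7.4) containing compound. [^3H]-taurocholate (8 μM final) uptake ran 60 min at 37° C. Cells were washed with 1 mM taurocholate, lysed in NaOH, and counted by liquid scintillation.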

[4] = system: Caco-2 cell; assay: Gastrointestinal toxicity: cytotoxicity against Caco-2 cell (LDH activity); format: cell-based, human; conditions: 2 hours, LDH activity in medium relative to cell lysis agent = 100%
Summary of the method: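 Caco-2 cells were grown 48 h, then exposed to compound in medium for 2 h. LDH released into the medium was measured, and cytotoxicity was expressed as activity relative to lysis-agent-treated cells (100%).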

[5] = system: Wistar rats given choline-deficient food; assay: Steatohepatitis model: AST and ALT in blood; format: in vivo, rat; conditions: 3 mg/kg oral once a day for 2 weeks, n = 4, average ± standard error; for AST: control group (n = 6) 180 ± 46; for ALT: control group (n = 6) 245 ± 57
Description: In the present Test Example, a steatohepatitis model was employed with reference to the method of Okan A et al. (Dig. Dis. Sci., 47:2389-2397, 2002).
That is, choline-deficient food (supplied from Oriental Yeast Co., Ltd.) was given to Wistar rats at 7 weeks of age for two weeks to prepare a steatohepatitis model. The test compound was suspended in an aqueous solution of 0.5% methylcellulose (supplied from Wako Pure Chemical Industries), and the aqueous solution of 0.5% methylcellulose (supplied from Wako Pure Chemical Industries) was used as the control. They were orally administered once a day for consecutive 2 weeks. The blood was collected from the abdominal aorta on the day after the final drug administration. AST (GOT) and ALT (GPT) in the blood were measured using the measurement kits (GOT II-HA Test Wako and GPT II Test Wako, supplied from Wako Pure Chemical Industries) with an automatic analyzer (Nitech ANALAYZER SUPER Z818).

[6] = 0.1 mg/kg oral with cholic acid 200 mg/kg, portal vein serum total bile acid 2 hours after, control = 100%, surfactant HCO-60 (##)
[7] = Table 14-2, control group 44.1 ± 0.6
[8] = Table 14-2, control group 0.7 ± 0.4
[9] = Table 14-2, control group 44.8 ± 0.9
[10] = Table 14-2, control group 103 ± 19
[11] = Table 14-1, control group 42.8 ± 0.4
[12] = Table 14-1, control group 42.0 ± 0.7
[13] = Table 14-1, control group 94 ± 18
[14] = Table 14-1, control group −0.8 ± 0.5

Compound: CCCCC1(CCCC)CS(=O)(=O)c2ccc(N(C)C)cc2C(c2cccc(NC(=S)Nc3ccc(C[n+]4cccc(CCC(=O)OC)c4)cc3)c2)N1.[Br-] (stereo not shown) [EXAMPLE 3752]
- BILE ACID REDUCTION RATE (%) IN RAT MODEL WITH CHOLIC ACID LOADING [1, 6]: 42%
- BODY WEIGHT (g) BEFORE ADMINISTRATION [2, 7]: 43.8 ± 1.2 g
- BODY WEIGHT (g) DIFFERENCE [2, 8]: -2.3 ± 0.9 g
- BODY WEIGHT (g) TWO WEEKS [2, 9]: 41.5 ± 1.0 g
- LIVER TRIGLYCERIDE [2, 10]: 56 ± 23 mg/g
- IC50 [3]: 41 nM
- CELL TOXICITY AGAINST Caco2 3 μM [4]: <1%
- CELL TOXICITY AGAINST Caco2 10 μM [4]: <1%
- CELL TOXICITY AGAINST Caco2 30 μM [4]: <1%
- AST [5]: 69 ± 98 IU/L
- ALT [5]: 88 ± 45 IU/L

Compound: C#CC[N+](C)(Cc1ccccc1)Cc1ccc(NC(=S)Nc2cccc(C3NC(CCCC)(CCCC)CS(=O)(=O)c4ccc(N(C)C)cc43)c2)cc1.[Br-] (racemic) [EXAMPLE 3448]
- BILE ACID REDUCTION RATE (%) IN RAT MODEL WITH CHOLIC ACID LOADING [1, 6]: 25%
- BODY WEIGHT (g) BEFORE ADMINISTRATION [2, 7]: 44.1 ± 0.7 g
- BODY WEIGHT (g) DIFFERENCE [2, 8]: -2.0 ± 0.7 g
- BODY WEIGHT (g) TWO WEEKS [2, 9]: 42.1 ± 3.2 g
- LIVER TRIGLYCERIDE [2, 10]: 74 ± 8 mg/g
- IC50 [3]: 37 nM
- CELL TOXICITY AGAINST Caco2 3 μM [4]: <1%
- CELL TOXICITY AGAINST Caco2 10 μM [4]: <1%
- CELL TOXICITY AGAINST Caco2 30 μM [4]: <1%
- AST [5]: 134 ± 23 IU/L
- ALT [5]: 143 ± 79 IU/L

Compound: CCCCC1(CCCC)CS(=O)(=O)c2ccc(N(C)C)cc2C(c2cccc(NC(=S)Nc3ccc(C[n+]4cccc(CCCO)c4)cc3)c2)N1.[Br-] (stereo not shown) [EXAMPLE 3747]
- BILE ACID REDUCTION RATE (%) IN RAT MODEL WITH CHOLIC ACID LOADING [1, 6]: 40%
- BODY WEIGHT (g) BEFORE ADMINISTRATION [2, 7]: 44.3 ± 0.8 g
- BODY WEIGHT (g) DIFFERENCE [2, 8]: -2.1 ± 1.0 g
- BODY WEIGHT (g) TWO WEEKS [2, 9]: 42.2 ± 1.8 g
- LIVER TRIGLYCERIDE [2, 10]: 47 ± 23 mg/g
- IC50 [3]: 45 nM
- CELL TOXICITY AGAINST Caco2 3 μM [4]: <1%
- CELL TOXICITY AGAINST Caco2 10 μM [4]: <1%
- CELL TOXICITY AGAINST Caco2 30 μM [4]: <1%
- AST [5]: 63 ± 86 IU/L
- ALT [5]: 102 ± 50 IU/L

Compound: CCCCC1(CCCC)CS(=O)(=O)c2ccc(N(C)C)cc2C(c2cccc(NC(=S)Nc3ccc(C[N+]4(Cc5ccccc5)CCC(O)CC4)cc3)c2)N1.[Br-] (stereo not shown) [EXAMPLE 3605]
- BILE ACID REDUCTION RATE (%) IN RAT MODEL WITH CHOLIC ACID LOADING [1, 6]: 24%
- BODY WEIGHT (g) BEFORE ADMINISTRATION [2, 11]: 42.9 ± 1.1 g
- BODY WEIGHT (g) TWO WEEKS [2, 12]: 41.4 ± 1.0 g
- LIVER TRIGLYCERIDE [2, 13]: 65 ± 7 mg/g
- BODY WEIGHT (g) DIFFERENCE [2, 14]: -1.5 ± 0.4 g
- IC50 [3]: 39 nM
- CELL TOXICITY AGAINST Caco2 3 μM [4]: <1%
- CELL TOXICITY AGAINST Caco2 10 μM [4]: <1%
- CELL TOXICITY AGAINST Caco2 30 μM [4]: <1%
- AST [5]: 80 ± 34 IU/L
- ALT [5]: 121 ± 36 IU/L

Compound: CCCCC1(CCCC)CS(=O)(=O)c2ccc(N(C)C)cc2C(c2cccc(NC(=S)CCCCC[N+]34CCC(CC3)CC4)c2)N1.[Br-] (stereo not shown) [EXAMPLE 1, 1-{5-[3-(3,3-dibutyl-7-dimethylamino-1,1-dioxo-2,3,4,5-tetrahydro-1,4-benzothiazepine-5-yl)phenylthiocarbamoyl]pentyl}-1-azoniabicyclo[2.2.2]octane bromide]
- BILE ACID REDUCTION RATE (%) IN RAT MODEL WITH CHOLIC ACID LOADING ([1]; 0.1 mg/kg oral, surfactant Tween 20 0.05%, cholic acid 200 mg/kg, portal vein blood 2 hours after administration): 51%
- BODY WEIGHT (g) BEFORE ADMINISTRATION [2, 11]: 43.0 ± 0.5 g
- BODY WEIGHT (g) TWO WEEKS [2, 12]: 41.0 ± 0.6 g
- LIVER TRIGLYCERIDE [2, 13]: 71 ± 13 mg/g
- BODY WEIGHT (g) DIFFERENCE [2, 14]: -1.9 ± 0.3 g

Now from value to compound, other results behind:

- IC50 [3]: 32 nM
Compound: CCCCC1(CCCC)CS(=O)(=O)c2ccc(N(C)C)cc2C(c2cccc(NC(=S)Nc3ccc(C[n+]4ccccc4CCC)cc3)c2)N1.[Br-] (stereo not shown) [EXAMPLE 5408]
- BILE ACID REDUCTION RATE (%) IN RAT MODEL WITH CHOLIC ACID LOADING [1, 6]: 35%
- BODY WEIGHT (g) BEFORE ADMINISTRATION [2, 7]: 44.0 ± 0.9 g
- BODY WEIGHT (g) DIFFERENCE [2, 8]: -1.8 ± 0.5 g
- BODY WEIGHT (g) TWO WEEKS [2, 9]: 42.2 ± 1.6 g
- LIVER TRIGLYCERIDE [2, 10]: 70 ± 11 mg/g
- CELL TOXICITY AGAINST Caco2 3 μM [4]: <1%
- CELL TOXICITY AGAINST Caco2 10 μM [4]: <1%
- CELL TOXICITY AGAINST Caco2 30 μM [4]: <1%
- AST [5]: 103 ± 45 IU/L
- ALT [5]: 149 ± 38 IU/L

- IC50 [3]: 37 nM
Compound: CCCCC1(CCCC)CS(=O)(=O)c2ccc(N(C)C)cc2C(c2cccc(NC(=S)Nc3ccc(C[n+]4ccc(C(C)(C)C)cc4)cc3)c2)N1.[Br-] (stereo not shown) [EXAMPLE 3713]
- BILE ACID REDUCTION RATE (%) IN RAT MODEL WITH CHOLIC ACID LOADING [1, 6]: 32%
- BODY WEIGHT (g) BEFORE ADMINISTRATION [2, 7]: 44.0 ± 1.1 g
- BODY WEIGHT (g) DIFFERENCE [2, 8]: -2.5 ± 0.6 g
- BODY WEIGHT (g) TWO WEEKS [2, 9]: 41.5 ± 2.4 g
- LIVER TRIGLYCERIDE [2, 10]: 59 ± 33 mg/g
- CELL TOXICITY AGAINST Caco2 3 μM [4]: <1%
- CELL TOXICITY AGAINST Caco2 10 μM [4]: <1%
- CELL TOXICITY AGAINST Caco2 30 μM [4]: <1%
- AST [5]: 77 ± 37 IU/L
- ALT [5]: 118 ± 36 IU/L

- IC50 [3]: 37 nM
Compound: CCCCC1(CCCC)CS(=O)(=O)c2ccc(N(C)C)cc2C(c2cccc(NC(=S)Nc3ccc(C[N+](C)(C)Cc4ccccc4)cc3)c2)N1.[Br-] (stereo not shown) [EXAMPLE 3440]
- BILE ACID REDUCTION RATE (%) IN RAT MODEL WITH CHOLIC ACID LOADING ([1]; 0.1 mg/kg oral, surfactant HCO-60 0.1%, cholic acid 200 mg/kg, portal vein blood 2 hours after administration): 26%
- BODY WEIGHT (g) BEFORE ADMINISTRATION [2, 7]: 44.6 ± 0.8 g
- BODY WEIGHT (g) DIFFERENCE [2, 8]: -0.7 ± 1.0 g
- BODY WEIGHT (g) TWO WEEKS [2, 9]: 43.9 ± 1.8 g
- LIVER TRIGLYCERIDE [2, 10]: 88 ± 6 mg/g
- CELL TOXICITY AGAINST Caco2 3 μM [4]: <1%
- CELL TOXICITY AGAINST Caco2 10 μM [4]: <1%
- CELL TOXICITY AGAINST Caco2 30 μM [4]: <1%
- AST [5]: 125 ± 34 IU/L
- ALT [5]: 167 ± 93 IU/L
